This note sets out measurements from ChEMBL document CHEMBL1201862, “PubChem BioAssay data set” (2004).

The source made the active and inactive calls. Cut-off read from the data, not from the text of the source, for most assays here: actives have a measured IC50 and inactives only a lower limit.

The target of assay [1] is Glyceraldehyde-3-phosphate dehydrogenase (Homo sapiens, UniProt P04406).
Assay [2] deals with T1, Alkaline phosphatase, tissue-nonspecific isozyme (Homo sapiens, UniProt P05186).
T1 sequence (P05186 whole entry): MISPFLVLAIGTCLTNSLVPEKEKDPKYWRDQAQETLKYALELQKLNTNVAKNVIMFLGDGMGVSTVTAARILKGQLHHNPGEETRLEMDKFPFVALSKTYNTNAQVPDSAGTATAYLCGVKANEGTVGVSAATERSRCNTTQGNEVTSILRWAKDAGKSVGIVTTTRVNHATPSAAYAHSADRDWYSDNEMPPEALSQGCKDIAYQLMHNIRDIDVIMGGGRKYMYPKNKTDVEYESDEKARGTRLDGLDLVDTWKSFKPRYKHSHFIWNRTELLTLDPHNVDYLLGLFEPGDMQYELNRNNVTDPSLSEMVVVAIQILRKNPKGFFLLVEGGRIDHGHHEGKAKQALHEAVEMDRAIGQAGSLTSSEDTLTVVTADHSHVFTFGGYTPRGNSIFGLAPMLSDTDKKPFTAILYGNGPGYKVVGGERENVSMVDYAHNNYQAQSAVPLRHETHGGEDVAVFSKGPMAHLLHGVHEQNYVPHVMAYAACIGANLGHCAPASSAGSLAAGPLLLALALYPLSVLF
Description: potency against alkaline phosphatase TNAP – biochemical, luminescent, dose response, SAR follow-up (AID 1056).

The target of assay [3] is Intestinal-type alkaline phosphatase (Mus musculus, UniProt P24822). Description: PubChem AID 488874. It counts as functional.
Assay [4] concerns the target T2, Intestinal-type alkaline phosphatase (Homo sapiens, UniProt P09923). The assay is described as follows: human intestinal alkaline phosphatase activators, dose response, biochemical, luminescence, uHTS hits (AID 463120). The class given is functional.
In assay [5] the target is T2, Intestinal-type alkaline phosphatase. The assay is described as follows: activation of human intestinal alkaline phosphatase – biochemical, luminescent, uHTS hits, set 2, dose response (AID 488817).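 Note: potency of activators that raise enzyme activity.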 The class given is functional.
Assay [6] deals with T1, Alkaline phosphatase, tissue-nonspecific isozyme. The assay is described as follows: activation of tissue-nonspecific alkaline phosphatase – biochemical, TNAP isozyme, human IAP uHTS hits, selectivity assay for human IAP activator project, dose response (AID 488886).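 Note: potency of compounds raising TNAP activity as a selectivity check on IAP activators.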 The class given is functional.
Assay [7] has as its target Dual specificity protein kinase CLK1 (Homo sapiens, UniProt P49759). Description: inhibition of human CLK1 activity – biochemical, cherry-picked samples, selectivity assay for Dyrk1A inhibitor project, dose response (AID 588811).
Assay [8] relates to HEK293. Description: inhibition of NOD1-driven NF-kB reporter – cell-based, luminescence, uHTS, primary screen (AID 1578). The class given is functional. The note with it: Homo sapiens.
The test system of assay [9] is HEK293. The assay is described as follows: cells. The note with it: Homo sapiens. The class given is functional, cell-based.
In assay [10] the test system is HEK293. The assay is described as follows: cells. The note with it: Homo sapiens. It counts as functional, cell-based. The source holds these as a separate data set.
Assay [11] addresses Nucleotide-binding oligomerization domain-containing protein 2 (Homo sapiens, UniProt Q9HC29). The assay is described as follows: inhibition of NOD2-driven NF-kB reporter – cell-based, luminescence, uHTS, HEK293 (AID 1566). It counts as functional.
The subject of assay [12] is HEK293. The assay is described as follows: NOD2 signaling inhibitors in MDP-stimulated cells, cell-based, uHTS, luminescence (AID 2001). The note with it: Homo sapiens. The class given is functional.
Assay [13] relates to HEK293. Description: cells. It counts as functional, cell-based. The note with it: Homo sapiens. The source holds these as a separate data set.
Another assay addresses Tumor necrosis factor (Homo sapiens, UniProt P01375). The assay is described as follows: analog potency on TNFa NF-kB signaling – cell-based, revised, SAR follow-up (AID 2337). The class given is functional.
In assay [14] the target is Nucleotide-binding oligomerization domain-containing protein 1 (Homo sapiens, UniProt Q9Y239). The assay is described as follows: blockers of NOD1 pathway activity – revised, SAR follow-up (AID 2333). It counts as functional.
Assay [15] has as its target T3, Corticotropin-releasing factor receptor 2/Corticotropin-releasing factor-binding protein (Homo sapiens, UniProt P24387+Q13324).
T3 sequence (Q13324 whole entry): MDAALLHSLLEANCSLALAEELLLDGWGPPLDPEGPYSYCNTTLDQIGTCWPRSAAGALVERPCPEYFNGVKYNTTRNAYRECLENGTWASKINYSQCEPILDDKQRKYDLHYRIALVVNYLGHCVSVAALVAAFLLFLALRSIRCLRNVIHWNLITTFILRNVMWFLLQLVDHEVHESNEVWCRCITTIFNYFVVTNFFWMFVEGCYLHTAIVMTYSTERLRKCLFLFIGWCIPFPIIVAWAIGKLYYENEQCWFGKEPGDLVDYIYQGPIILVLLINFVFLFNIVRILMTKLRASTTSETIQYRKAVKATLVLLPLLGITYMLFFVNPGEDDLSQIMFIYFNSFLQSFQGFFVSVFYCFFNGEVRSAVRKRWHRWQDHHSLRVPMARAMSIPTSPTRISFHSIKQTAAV
T3 sequence (P24387 whole entry): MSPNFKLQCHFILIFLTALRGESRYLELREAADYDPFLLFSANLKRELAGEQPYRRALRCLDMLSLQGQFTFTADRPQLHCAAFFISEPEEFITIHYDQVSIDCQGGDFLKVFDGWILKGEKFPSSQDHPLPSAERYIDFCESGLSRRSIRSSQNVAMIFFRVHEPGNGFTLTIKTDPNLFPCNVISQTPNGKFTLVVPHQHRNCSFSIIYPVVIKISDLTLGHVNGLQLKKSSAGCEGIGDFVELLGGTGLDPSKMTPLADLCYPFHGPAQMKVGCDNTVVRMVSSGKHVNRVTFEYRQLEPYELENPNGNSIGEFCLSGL
The assay is described as follows: Dose Response confirmation of uHTS hits for small molecule antagonists of the CRF-binding protein and CRF-R2 receptor complex. The class given is functional. The note with it: read-out: IC50_Mean.

Assay [16] deals with T3, Corticotropin-releasing factor receptor 2/Corticotropin-releasing factor-binding protein. The assay is described as follows: activators of CRF receptor 2 with binding protein – uHTS hits, confirmation (AID 602473). The class given is functional. The note with it: read-out: EC50_Mean.
A short description of assay [17]: blockers of CRF-binding protein–CRF-R2 complex – cell-based, uHTS hits, 384-well, dose response (AID 651639). The class given is functional, Homo sapiens. The note with it: read-out: IC50_Mean.
Assay [18] concerns HEK293. Description: cells. The note with it: Homo sapiens.
In assay [19] the target is Alkaline phosphatase, placental type (Homo sapiens, UniProt P05187). The assay is described as follows: human placental alkaline phosphatase inhibition – biochemical, luminescence, confirmation (AID 1512). It counts as functional.
Chain of Alkaline phosphatase, placental type (P05187 whole entry): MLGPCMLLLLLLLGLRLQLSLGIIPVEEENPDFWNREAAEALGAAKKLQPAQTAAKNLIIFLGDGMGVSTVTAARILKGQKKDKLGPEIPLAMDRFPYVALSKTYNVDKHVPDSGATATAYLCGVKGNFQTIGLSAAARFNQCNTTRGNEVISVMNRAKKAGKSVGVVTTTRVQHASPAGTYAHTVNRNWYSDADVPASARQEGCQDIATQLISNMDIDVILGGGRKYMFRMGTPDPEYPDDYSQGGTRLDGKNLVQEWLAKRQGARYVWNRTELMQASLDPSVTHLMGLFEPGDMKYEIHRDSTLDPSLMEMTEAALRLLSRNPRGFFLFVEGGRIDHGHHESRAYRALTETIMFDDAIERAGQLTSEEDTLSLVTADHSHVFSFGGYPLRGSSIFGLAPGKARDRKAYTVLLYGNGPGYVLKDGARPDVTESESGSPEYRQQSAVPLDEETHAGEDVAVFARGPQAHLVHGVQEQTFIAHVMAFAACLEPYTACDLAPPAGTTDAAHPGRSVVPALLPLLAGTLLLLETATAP

T2 sequence (P09923 whole entry): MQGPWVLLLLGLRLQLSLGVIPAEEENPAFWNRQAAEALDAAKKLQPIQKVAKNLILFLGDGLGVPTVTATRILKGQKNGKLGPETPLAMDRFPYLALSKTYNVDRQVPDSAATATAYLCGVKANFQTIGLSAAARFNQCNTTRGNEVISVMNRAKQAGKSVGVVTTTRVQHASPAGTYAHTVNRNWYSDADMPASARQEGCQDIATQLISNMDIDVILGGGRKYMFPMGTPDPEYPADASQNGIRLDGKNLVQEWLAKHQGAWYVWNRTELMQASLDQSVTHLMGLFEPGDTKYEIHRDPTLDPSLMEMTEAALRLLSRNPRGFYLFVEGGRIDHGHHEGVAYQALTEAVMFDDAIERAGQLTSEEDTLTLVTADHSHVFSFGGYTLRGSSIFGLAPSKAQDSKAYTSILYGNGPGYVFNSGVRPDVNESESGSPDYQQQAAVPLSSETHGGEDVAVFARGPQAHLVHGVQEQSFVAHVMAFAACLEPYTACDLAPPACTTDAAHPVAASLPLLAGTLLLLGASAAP
Chain of Nucleotide-binding oligomerization domain-containing protein 2 (Q9HC29 whole entry, the tested form may be a part): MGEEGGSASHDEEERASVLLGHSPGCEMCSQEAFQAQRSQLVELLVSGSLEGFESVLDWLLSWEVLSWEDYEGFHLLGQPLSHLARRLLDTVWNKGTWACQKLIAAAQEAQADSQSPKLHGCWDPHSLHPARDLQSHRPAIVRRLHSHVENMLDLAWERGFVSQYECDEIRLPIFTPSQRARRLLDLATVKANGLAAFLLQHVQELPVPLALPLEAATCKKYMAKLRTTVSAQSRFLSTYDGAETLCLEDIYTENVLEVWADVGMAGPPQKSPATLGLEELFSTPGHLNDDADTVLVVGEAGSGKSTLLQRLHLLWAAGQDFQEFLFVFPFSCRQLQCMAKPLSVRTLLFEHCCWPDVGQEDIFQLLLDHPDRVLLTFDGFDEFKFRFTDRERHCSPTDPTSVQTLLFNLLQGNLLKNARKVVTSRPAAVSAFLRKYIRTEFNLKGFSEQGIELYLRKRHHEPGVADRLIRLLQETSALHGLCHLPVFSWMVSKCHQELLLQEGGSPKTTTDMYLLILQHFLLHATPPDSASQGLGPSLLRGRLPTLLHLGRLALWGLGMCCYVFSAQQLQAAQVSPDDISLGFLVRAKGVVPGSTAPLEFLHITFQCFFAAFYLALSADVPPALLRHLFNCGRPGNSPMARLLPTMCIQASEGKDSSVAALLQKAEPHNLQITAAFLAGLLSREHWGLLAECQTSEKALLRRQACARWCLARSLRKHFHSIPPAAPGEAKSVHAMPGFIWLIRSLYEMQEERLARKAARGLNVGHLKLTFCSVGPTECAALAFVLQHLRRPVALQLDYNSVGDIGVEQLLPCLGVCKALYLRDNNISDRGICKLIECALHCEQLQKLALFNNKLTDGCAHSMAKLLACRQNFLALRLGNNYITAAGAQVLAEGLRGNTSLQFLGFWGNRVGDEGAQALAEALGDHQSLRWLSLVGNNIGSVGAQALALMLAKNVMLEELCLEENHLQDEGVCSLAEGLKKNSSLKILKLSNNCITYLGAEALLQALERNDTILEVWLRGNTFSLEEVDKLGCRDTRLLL
Chain of Glyceraldehyde-3-phosphate dehydrogenase (P04406 whole entry): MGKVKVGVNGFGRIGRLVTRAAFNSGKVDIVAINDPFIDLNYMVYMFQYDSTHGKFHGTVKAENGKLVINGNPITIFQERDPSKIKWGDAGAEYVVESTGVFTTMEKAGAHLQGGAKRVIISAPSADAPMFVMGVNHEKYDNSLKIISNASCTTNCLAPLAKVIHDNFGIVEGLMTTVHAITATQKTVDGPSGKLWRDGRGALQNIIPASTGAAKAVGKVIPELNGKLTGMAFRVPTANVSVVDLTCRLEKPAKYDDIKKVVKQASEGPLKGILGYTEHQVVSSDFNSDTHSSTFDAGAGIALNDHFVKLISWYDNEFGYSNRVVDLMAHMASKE
Chain of Nucleotide-binding oligomerization domain-containing protein 1 (Q9Y239 whole entry, the tested form may be a part): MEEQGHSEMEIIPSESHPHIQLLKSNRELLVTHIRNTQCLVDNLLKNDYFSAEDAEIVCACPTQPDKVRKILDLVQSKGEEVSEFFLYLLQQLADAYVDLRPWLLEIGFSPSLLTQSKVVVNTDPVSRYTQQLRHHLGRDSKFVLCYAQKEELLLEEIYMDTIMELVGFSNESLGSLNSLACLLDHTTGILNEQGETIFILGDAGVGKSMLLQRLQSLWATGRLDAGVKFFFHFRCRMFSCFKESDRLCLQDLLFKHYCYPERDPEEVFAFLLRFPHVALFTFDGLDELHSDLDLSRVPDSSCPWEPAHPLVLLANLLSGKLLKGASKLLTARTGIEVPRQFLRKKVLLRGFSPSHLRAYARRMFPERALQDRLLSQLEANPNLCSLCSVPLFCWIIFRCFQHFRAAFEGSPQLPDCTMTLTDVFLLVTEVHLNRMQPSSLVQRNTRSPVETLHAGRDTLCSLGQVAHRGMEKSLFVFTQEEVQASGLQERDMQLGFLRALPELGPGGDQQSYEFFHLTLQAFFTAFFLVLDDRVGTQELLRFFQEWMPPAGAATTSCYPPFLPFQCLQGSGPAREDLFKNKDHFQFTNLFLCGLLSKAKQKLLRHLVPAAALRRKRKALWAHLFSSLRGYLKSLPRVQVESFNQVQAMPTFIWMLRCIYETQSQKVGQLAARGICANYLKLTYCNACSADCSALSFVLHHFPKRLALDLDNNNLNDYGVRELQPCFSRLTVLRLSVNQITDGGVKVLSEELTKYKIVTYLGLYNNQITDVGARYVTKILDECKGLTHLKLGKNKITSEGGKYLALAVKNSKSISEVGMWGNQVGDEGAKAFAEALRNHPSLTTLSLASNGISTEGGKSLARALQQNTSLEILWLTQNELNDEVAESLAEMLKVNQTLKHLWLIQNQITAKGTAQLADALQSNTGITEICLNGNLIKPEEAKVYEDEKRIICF
Chain of Intestinal-type alkaline phosphatase (Mus musculus, UniProt P24822) (P24822 whole entry): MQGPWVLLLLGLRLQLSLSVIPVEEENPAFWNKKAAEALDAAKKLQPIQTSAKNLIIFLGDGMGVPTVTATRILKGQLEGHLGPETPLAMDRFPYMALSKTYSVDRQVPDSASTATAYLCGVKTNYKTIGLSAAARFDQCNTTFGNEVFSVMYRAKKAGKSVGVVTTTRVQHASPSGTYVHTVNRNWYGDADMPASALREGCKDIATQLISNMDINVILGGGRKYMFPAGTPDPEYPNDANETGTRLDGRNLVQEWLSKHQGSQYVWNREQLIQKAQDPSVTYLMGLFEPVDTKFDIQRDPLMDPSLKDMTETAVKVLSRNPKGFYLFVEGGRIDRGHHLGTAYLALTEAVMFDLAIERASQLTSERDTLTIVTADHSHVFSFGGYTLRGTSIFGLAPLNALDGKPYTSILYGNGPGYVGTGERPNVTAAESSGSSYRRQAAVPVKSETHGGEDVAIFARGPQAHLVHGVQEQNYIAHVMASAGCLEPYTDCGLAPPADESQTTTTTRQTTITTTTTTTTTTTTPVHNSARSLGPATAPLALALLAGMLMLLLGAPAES
Chain of Tumor necrosis factor (P01375 whole entry, the tested form may be a part): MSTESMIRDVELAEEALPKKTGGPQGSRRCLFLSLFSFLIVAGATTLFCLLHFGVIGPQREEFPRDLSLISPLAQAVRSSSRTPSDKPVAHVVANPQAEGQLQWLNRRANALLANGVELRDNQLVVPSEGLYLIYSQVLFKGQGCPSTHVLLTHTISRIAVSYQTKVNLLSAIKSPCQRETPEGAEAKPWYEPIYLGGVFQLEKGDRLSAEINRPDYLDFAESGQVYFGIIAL
Chain of Dual specificity protein kinase CLK1 (P49759 whole entry): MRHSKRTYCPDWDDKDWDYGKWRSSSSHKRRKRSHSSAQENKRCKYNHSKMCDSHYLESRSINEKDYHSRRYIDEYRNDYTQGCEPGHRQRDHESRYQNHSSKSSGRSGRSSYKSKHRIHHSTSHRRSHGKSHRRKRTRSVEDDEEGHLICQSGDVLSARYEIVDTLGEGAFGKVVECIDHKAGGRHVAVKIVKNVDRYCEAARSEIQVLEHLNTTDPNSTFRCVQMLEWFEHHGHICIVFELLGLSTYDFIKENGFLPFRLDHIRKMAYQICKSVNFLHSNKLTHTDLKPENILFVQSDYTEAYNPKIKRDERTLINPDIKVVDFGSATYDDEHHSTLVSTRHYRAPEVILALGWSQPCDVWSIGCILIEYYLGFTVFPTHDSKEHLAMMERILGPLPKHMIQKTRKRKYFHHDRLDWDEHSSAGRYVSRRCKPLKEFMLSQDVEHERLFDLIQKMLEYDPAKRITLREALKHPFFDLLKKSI

Take `O=S(=O)(Nc1ccc2ccccc2c1)c1ccccc1`: the IC50 in assay [1] was > 100 µM (not active); in [2], > 100 µM (inactive).

Turning to `O=C(NNC(=S)NCc1ccco1)c1ccccc1Br`, in assay [3], the IC50 was 53.9 µM (active). Also, the EC50 in assay [4] was 9.62 µM (active); in [5], 13.8 µM (active); in assay [6] it was 12 µM (active).

As for `c1nc(NCC2CCCOC2)c2cc(-c3ccc4c(c3)OCO4)ccc2n1` (stereo unspecified), in [7], the AC50 – broadly, the concentration at which the activity in the assay is half-maximal – is 0.0101 µM (active).

Turning to `CC1CCN(S(=O)(=O)c2nnc(NC(=O)c3cccc(Cl)c3)s2)CC1`, the EC50 with HEK293 [8] is 2.64 µM (active); in assay [11] it was 16.8 µM (active); in assay [16] it was > 53 µM (inactive). Besides, the IC50 is 11.1 µM (active) with HEK293 [9]; > 20 µM (inactive) in the assay with HEK293 [10]; 9.2 µM (active) in the assay on HEK293 [12]; > 20 µM (inactive) in the assay with HEK293 [13]; 6.64 µM (active) at Tumor necrosis factor; 5.14 µM (active) in assay [14]. Further, the IC50 was 14.6 µM (active) in assay [15], > 20 µM (inactive) in [17] and 17.2 µM (active) in the assay on HEK293 [18].

For the molecule `Cc1cc(C)nc(SCC(=O)c2cccc(O)c2)n1`, the IC50 in assay [19] and in [2] was > 100 µM (inactive) in each case.
